Read-outs that look alike come from different tables or passages of the source.
How the values were obtained:
T. cruzi = tested on: T. cruzi; set-up: method as in PMID 26778112; conditions: cited from earlier work
[1] = target: T1, TcGlcK (Trypanosoma cruzi glucokinase) (Trypanosoma cruzi, UniProt Q4E4E1); assay: TcGlcK primary screening assay (LmG6PDH-coupled, Dixon plots); format: biochemical; conditions: Dixon plots; 0.4, 0.6, 0.8 mM D-glucose; N = 1 unless marked, N = 3 for compounds 1, 4, 9, 11
T1 construct: made in house; host or cells: Escherichia coli BL21(DE3)
T1 sequence (Q4E4E1 1-376): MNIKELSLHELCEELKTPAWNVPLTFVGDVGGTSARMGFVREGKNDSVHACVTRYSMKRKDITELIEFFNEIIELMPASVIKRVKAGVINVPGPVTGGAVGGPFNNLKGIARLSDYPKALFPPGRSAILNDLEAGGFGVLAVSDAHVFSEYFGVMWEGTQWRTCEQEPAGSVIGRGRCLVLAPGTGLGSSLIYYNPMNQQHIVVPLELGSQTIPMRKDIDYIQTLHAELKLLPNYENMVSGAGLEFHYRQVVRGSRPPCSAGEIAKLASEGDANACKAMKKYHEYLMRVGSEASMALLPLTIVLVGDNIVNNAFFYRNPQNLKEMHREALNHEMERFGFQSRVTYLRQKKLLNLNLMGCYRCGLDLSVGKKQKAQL
Procedure: A primary screening assay was carried out for TcGlcK with the 3-nitro-2-phenyl-2H-chromene analogues. The data was subsequently processed for respective Ki values in order to assess enzyme inhibition. […] The primary screening assay was performed with the substrate D-glucose in various concentrations of 0.4 mM, 0.6 mM, and 0.8 mM to produce Dixon plots with different slopes. Each of the 3-nitro-2-phenyl-2H-chromene analogues were originally prepared at a working concentration of 1.0 mM and were dissolved in 100% DMSO. The final assay concentrations of the analogue compounds (inhibitors) ranged from 0.0–10.0 μM. The analogue compounds were pre-incubated with the enzyme system a minimum of 10 min prior to the initiation of the assay. The enzymatic reaction was carried out at room temperature (22 °C; temperature optimum) using ATP to initiate the reaction, and termination was performed after 120 s (time optimum) by stopping the reaction with the addition of an EDTA (pH 8.0) solution, to a final concentration of 100 mM. TcGlcK enzyme activity was analyzed for the production of NADPH. Each completed reaction mixture was added into a black, round-bottom microplate and scanned by a VANTAstar-F multi-mode microplate reader (BMG LABTECH, Inc.; Cary, NC, USA). The instrument was set to fluorescence mode and the wavelengths (λex = 340 nm; λem = 485 nm) were set to observe the relative fluorescence units of NADPH [40]. The enzyme-inhibition kinetics Ki value determination and the mode of inhibition was determined using the Cornish–Bowden Dixon Plot analysis method.

[2] = tested on: T. brucei brucei (427 strain) bloodstream form; assay: In vitro T. brucei biological assay (Alamar blue); format: cell-based, Trypanosoma brucei brucei; conditions: Trypanosoma brucei, 48 h, T. brucei brucei 427 strain bloodstream form growth inhibition; N = 3
Procedure: The in vitro cell culture preparation of T. brucei brucei (427 strain) trypomastigote bloodstream form followed by treatment with inhibitors has recently been described by Ajayi and colleagues. The 3-nitro-2-phenyl-2H-chromene compounds (inhibitors) that were prepared as 10.0 mM stock solutions in 100% DMSO were thawed from −80 °C to room temperature. HMI-9 medium [Iscove’s modification of DMEM supplemented with 10% FBS, 10% serum plus (SAFC), 0.05 mM bathocuproinesulfonate, 1.5 mM L-cysteine, 1.0 mM hypoxanthine, 0.2 mM β-mercaptoethanol, 0.16 mM thymidine, and 1.0 mM pyruvate] was prepared. In a sterile, round-bottom, 96-well microplate, 100 μL of HMI-9 medium was added to each well. A volume of 2.0 μL of a given compound plus a volume of 98.0 μL of fresh media were both added to a well in the first row of the 96-well microplate; this was performed for each compound to be tested. Solutions were mixed with a micropipette followed by transfer of 100 μL to the next row and repeated. The compound solutions ranged from 0.0781–10.0 μM and this was accomplished by serial dilution using a 2-fold dilution. T. brucei parasites were centrifuged for 10 min at 900× g (without centrifuge breaks). The media was carefully discarded by aspiration and the parasites were resuspended in warm media. Parasites were counted in a Newbauer chamber. Afterwards, the parasites were diluted to 50,000 cells/mL (5000 cells/well) and 100 μL was added to each well of the 96-well microplate using a multichannel pipette. After 48 h, 20.0 μL of Alamar blue was added to each well and the plate was placed into an incubator for 4 h at 37 °C. Fluorescence readings were measured using a Victor Nivo multimode microplate reader (PerkinElmer, Inc.; Shelton, CT, USA) at λex = 530 nm and λem = 590 nm. All measurements were performed in triplicate and IC50 determinations for percent growth inhibition were carried out using GraphPad Prism 10.0. The detergent SDS was used as a positive control and its final solution concentration was 0.5%. Three control experiments were performed, as follows: (a) parasites alone, (b) parasites and 0.5% SDS, and (c) the medium alone.

NIH-3T3 fibroblasts = assay: In vitro cytotoxicity assay of mammalian NIH-3T3 fibroblasts (Alamar blue); format: cell-based; conditions: NIH-3T3 fibroblast growth inhibition, host cell toxicity; 4 days; N = 3
Procedure: The in vitro cell culturing of mammalian NIH-3T3 fibroblasts following treatment with inhibitors to assess for cytotoxicity has previously been described. DMEM lacking phenol red and supplemented with 2% FBS and 1% PSG was warmed up. NIH-3T3 cells were trypsinized, as described in the cell culture protocol. When cells became detached, they were harvested in DMEM lacking phenol red and including 2% FBS and 1% PSG. The cells were centrifuged at 1000 rpm for 5 min, the medium was discarded, and the cells were resuspended in fresh DMEM lacking phenol red and including 2% FBS and 1% PSG. The cells were centrifuged at 1000 rpm for 5 min, resuspended in the medium, counted, and diluted to 500,000 cells/mL. Dilution was accomplished by transferring the stock number of cells into a sterile basin and 100 μL of cells was added to each well of a transparent, sterile, flat-bottom, 96-well microplate (50,000 cells/well) using a multichannel pipette. The plate was placed into the incubator for 3 h to allow cells to attach. The 3-nitro-2-phenyl-2H-chromene compounds were thawed from −80 °C to room temperature. The compounds were prepared as 10.0 mM stock solutions in 100% DMSO. A volume of 2.0 μL of a given compound plus a volume of 98.0 μL of fresh media were both added to a well in the first row of the 96-well microplate; this was performed for each compound to be tested. The solutions were mixed with a micropipette, followed by the transfer of 100 μL to the next row and repeated. The compound solutions ranged from 0.0139–30.3 μM and this was accomplished by serial dilution using a 3-fold dilution. After incubation for 4 days, 10.0 μL of Alamar blue was added to each well. Absorbance readings were measured using a Victor Nivo multimode microplate reader (PerkinElmer, Inc.; Shelton, CT, USA) at λ = 590 nm. All measurements were performed in triplicate and TC50 determinations for percent growth inhibition were carried out using GraphPad Prism 10.0. The final volume per well of cells and a given compound was 100 μL and this volume became 110 μL after the addition of Alamar blue. The detergent SDS was used as a positive control and its final solution concentration was 0.1%. Three controls were carried out, as follows: (a) NIH-3T3 cells alone, (b) perished NIH-3T3 cells (NIH-3T3 cells in the presence of 0.1% SDS), and (c) the medium alone.

[3] = target: T2, LmG6PDH (Leuconostoc mesenteroides glucose-6-phosphate dehydrogenase) (Leuconostoc mesenteroides, UniProt P11411); assay: Confirmatory assay on the LmG6PDH enzyme-coupled system; format: biochemical; conditions: N = 4
T2 construct: purchased Worthington Biochemical Corporation
Procedure: Two criteria were examined in order to certify on-target confirmed hits: (a) the assessment of potential inhibition to the LmG6PDH enzyme-coupled system, and (b) the precision of the assay (per inhibitor), performed in quadruplicate (N = 4). Compounds were tested in quadruplicate in a black, round-bottom 96-well microplate in which wells were filled with a buffered solution (50 mM triethanolamine, 150 mM NaCl) amounting to a total volume of 206.5 μL that contained the following reagents at final assay concentrations: LmG6PDH (6.1 μg/mL), NADP^+ (0.54 mM), ATP (0.54 mM), MgCl2 (6.9 mM), DMSO (1.0% by vol.), D-glucose-6-phosphate (0.80 mM), and a 3-nitro-2-phenyl-2H-chromene analogue (20.0 μM). The analogue compounds were pre-incubated with the enzyme system a minimum of 10 min prior to the initiation of the assay. The enzymatic reactions were initiated and terminated similarly as described in the TcGlcK primary screen (vide supra). The production of NADPH was monitored using the VANTAstar-F multi-mode microplate reader set to fluorescent mode, λex = 340 nm and λem = 485 nm, over a 120-s timeframe.

TcGlcK = target: TcGlcK; set-up: method as in PMID 26778112; conditions: competitive inhibitor, previous study; cited from earlier work

T2 sequence (P11411 whole entry): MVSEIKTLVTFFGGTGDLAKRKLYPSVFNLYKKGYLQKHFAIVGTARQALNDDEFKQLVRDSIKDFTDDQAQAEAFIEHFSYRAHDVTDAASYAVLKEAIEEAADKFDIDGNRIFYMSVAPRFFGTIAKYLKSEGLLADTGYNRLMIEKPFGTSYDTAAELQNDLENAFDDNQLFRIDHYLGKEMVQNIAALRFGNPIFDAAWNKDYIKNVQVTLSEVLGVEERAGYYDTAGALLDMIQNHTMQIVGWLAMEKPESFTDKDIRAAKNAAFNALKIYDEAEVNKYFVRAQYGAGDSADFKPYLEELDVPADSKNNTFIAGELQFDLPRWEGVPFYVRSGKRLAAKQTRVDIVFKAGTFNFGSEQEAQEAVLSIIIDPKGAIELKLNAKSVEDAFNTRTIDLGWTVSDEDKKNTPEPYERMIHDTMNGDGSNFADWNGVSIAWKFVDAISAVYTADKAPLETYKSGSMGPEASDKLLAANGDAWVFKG

O=C(Cn1ccnc1[N+](=O)[O-])NCc1ccccc1 [Benznidazole, benznidazole]
IC50 (T. cruzi; benznidazole control, previous work, read-out: T. cruzi IC50): 1.12 ± 0.095 µM

O=[N+]([O-])C1=Cc2ccccc2OC1c1ccccc1Cl (centres unmarked) [Compound 12, 2-(2-Chlorophenyl)-3-nitro-2H -chromene]
Ki [1]: 14 µM
IC50 [2]: 1670 ± 60 nM
NIH-3T3 TC50 (NIH-3T3 fibroblasts): 10.9 ± 1.55 µM
LmG6PDH inhibitory effect (in words) ([3]; 20 µM compound): did not observe any significant LmG6PDH inhibitory effects
inhibition at 20 µM ([3]; percentage of inhibition at 20 µM compound in comparison to controls, read-out: LmG6PDH Inh20): 8.6 ± 0.1%

O=C(N[C@H]1[C@@H](O)[C@H](O)C(CO)O[C@@H]1O)OCc1ccccc1 (some centres unmarked) [carboxybenzyl glucosamine]
IC50 (T. cruzi; previous study, read-out: in vitro percent-growth-inhibition IC50 in T. cruzi culture): 48.7 µM
Ki (TcGlcK): 710 nM
